A short description of assay [1]: Antiproliferative activity against mouse Neuro-2A cells by WST-8 colorimetric assay. Type of assay: functional, cell-based. Conditions: N2a. In general terms: Tetrazolium assays rely on reduction of a dye to a coloured formazan, in cell work by metabolically active cells.
Assay [2] is described as follows: Antiproliferative activity against human KB3-1 cells by WST-8 colorimetric assay. Type of assay: functional, cell-based. The following applies: KB 3-1.
The next assay has as its system NHDF. Nature of the assay: Antiproliferative activity against NHDF cells by WST-8 colorimetric assay. Type of assay: functional, cell-based. The following applies: Homo sapiens.
The next assay concerns HUVEC. Nature of the assay: Antiproliferative activity against HUVEC cells by WST-8 colorimetric assay. Type of assay: cell-based. Conditions: Homo sapiens.
The test system of the next assay is K562. Nature of the assay: Antiproliferative activity against human K562 cells by WST-8 colorimetric assay. Type of assay: functional, cell-based.

The IC50 is the concentration at which inhibition is half-maximal. Low values mean inhibition by little substance, high ones a need for much substance.

Each structure is given as a SMILES string.

On to `CN(C)[C@H]1C[C@@]23CC[C@@]4(O2)C(=CC[C@@]2(C)[C@H]4CC(=O)[C@]2(O)c2ccc4ccncc4c2)C=C3[C@@H](O)[C@@H]1O`, for which the IC50 in assay [1] is over 300000 nM; in assay [2], 55000 nM; with NHDF, over 300000 nM; with HUVEC it was 150 nM; in the assay with K562, over 300000 nM.

Turning to `CN(C)[C@H]1C[C@@]23CC[C@@]4(O2)C(=CC[C@@]2(C)[C@H]4C[C@H](O)[C@@H]2c2ccc4ccncc4c2)C=C3[C@@H](O)[C@@H]1O`, the IC50 is 160000 nM in assay [1]; 120000 nM in assay [2]; over 300000 nM in the assay on NHDF; 1100 nM in the assay on HUVEC; 200000 nM in the assay on K562.

For the molecule `CC1CN(C)CCC1CCC(C)[C@H]1CC[C@@H]2[C@]1(C)CCC1=CC3=CC[C@@H](N(C)C)C[C@]34CC[C@@]12O4` (stereo not given in full) [CORTISTATIN E], the IC50 in assay [1] amounted to 1900 nM; in assay [2], 2500 nM; in the assay on NHDF, 1900 nM; in the assay with HUVEC, 450 nM; with K562, 2800 nM.

On to `CC1CN(C)CCC1CCC(C)[C@H]1CC[C@@H]2[C@]1(C)CC=C1C=C3C=C[C@@H](N(C)C)C[C@]34CC[C@@]12O4` (stereo not given in full) [CORTISTATIN F], for which the IC50 in assay [1] turned out to be 4000 nM; in assay [2], 10800 nM; with NHDF it was 4100 nM; with HUVEC, 1900 nM; in the assay on K562, 4000 nM.

As for `Cc1cnccc1/C=C/C(C)[C@H]1CC[C@@H]2[C@]1(C)CCC1=CC3=CC[C@@H](N(C)C)C[C@]34CC[C@@]12O4` (stereo not given in full) [CORTISTATIN G], the IC50 stood at 4000 nM in assay [1]; 8900 nM in assay [2]; 2900 nM in the assay on NHDF; 800 nM in the assay on HUVEC; 3800 nM in the assay on K562.

`Cc1cnccc1CCC(C)[C@H]1CC[C@@H]2[C@]1(C)CCC1=CC3=CC[C@@H](N(C)C)C[C@]34CC[C@@]12O4` (stereo not given in full) [CORTISTATIN H]: the IC50 in assay [1] was 2200 nM; in assay [2] it was 2300 nM; in the assay with NHDF it was 2700 nM; in the assay on HUVEC, 350 nM; in the assay on K562, 2700 nM.

For the molecule `CN(C)[C@@H]1C=CC2=CC3=CC[C@]4(C)[C@@H](c5ccc6ccncc6c5)CC[C@H]4[C@@]34CC[C@]2(C1)O4` [CORTISTATIN J], the IC50 was found to be 3300 nM in assay [1]; 9100 nM in assay [2]; 2400 nM in the assay on NHDF; 8 nM in the assay with HUVEC; 3300 nM in the assay with K562.

As to `CN(C)[C@@H]1CC=C2C=C3CC[C@]4(C)[C@@H](c5ccc6ccncc6c5)CC[C@H]4[C@@]34CC[C@]2(C1)O4` [CORTISTATIN K], the IC50 is 3000 nM in assay [1]; 10200 nM in assay [2]; 2500 nM in the assay on NHDF; 40 nM in the assay with HUVEC; 3900 nM in the assay on K562.

On to `CN(C)[C@H]1C[C@@]23CC[C@@]4(O2)C(=CC3=C[C@@H]1O)CC[C@]1(C)[C@@H](c2ccc3ccncc3c2)CC[C@H]14` [CORTISTATIN L], for which the IC50 turned out to be 2800 nM in assay [1]; 14000 nM in assay [2]; 2400 nM with NHDF; 23 nM with HUVEC; 4300 nM in the assay with K562.
